The source of these data is US11377467B2, “Crystalline form of gemcitabine” (NuCana plc, priority 2015, dated 2022).

Series [1] relates to advanced solid malignancies. Description: ProGem1 phase I study: clinical efficacy. In kind it is in vivo, human. As to conditions: patients with advanced progressive cancers who have exhausted all standard therapeutic options, many resistant or refractory to prior nucleoside analogue therapy. The text has this: (§1) ProGem1 was a first-time-in-human (FTIH), phase I, open label, two stage study to investigate the safety, tolerability, clinical efficacy, pharmacokinetics (PK) and pharmacodynamics (PD) of NUC-1031 given in two parallel dosing schedules in subjects with advanced solid malignancies (EudraCT Number: 2011-005232-26). Subjects had the following tumour types at study entry: colorectal cancer (7 subjects), unknown primary (3), ovarian cancer (12), breast cancer (4), pancreatic cancer (9), cholangiocarcinoma (7), endometrial cancer (3), cervical cancer (2), lung cancer (7), mesothelioma (3), oesophageal cancer (3), cancer of the fallopian tube (1), trophoblast (1), renal cancer (1), gastric cancer (1), anal cancer (1), cancer of the thymus (1) and osteosarcoma (1).

Series [2] in a line: ProGem1 phase I study: pharmacokinetics (intracellular dFdCTP, dFdU). Type of series: in vivo, human. As to conditions: relative to levels normally associated with gemcitabine.
Excerpt: as §1

Series [3] can be described thus: stability stress testing of crystalline form. In kind it is physicochemical. As to conditions: ambient light, 40° C. and 75% relative humidity, 7 days. The text has this:
Form VIII appeared physically stable upon stability stress testing.

On to `C[C@H](NP(=O)(OC[C@H]1O[C@@H](n2ccc(N)nc2=O)C(F)(F)C1O)Oc1ccccc1)C(=O)OCc1ccccc1` (stereo partly shown) [NUC-1031], for which, in series [1], the anti-tumour activity entry was “anti-tumour activity”. The “levels of the potentially toxic metabolite 2′,2′-difluoro-2′-deoxyuridine (dFdU) released, relative to gemcitabine” value in series [2] was “less than half”.

For the compound `C[C@H](N[P@](=O)(OC[C@H]1O[C@@H](n2ccc(N)nc2=O)C(F)(F)C1O)Oc1ccccc1)C(=O)OCc1ccccc1` (stereo partly shown) [Form VIII], in series [3], the “change in crystalline form upon storage” value is “No change in crystalline form” and the “decrease in purity upon storage” value is “no decrease in purity”.
